The values below come from patent US5500430A, “Amidic derivatives of glutamic, aspartic and 2-amino adipic acids, a process for preparing same, and anti-gastrin composition containing the derivatives” (Rotta Research Laboratorium S.p.A., priority 1990, dated 1996).

The structures appear in SMILES notation.

The target of this experiment is T1, gastrin receptor sites on the cerebral cortex membranes of mice (Mus musculus, UniProt P56481).
T1 construct: Mouse cortical tissue; from tissue; host or cells: mouse cerebral cortex membranes
T1 sequence (P56481 1-453): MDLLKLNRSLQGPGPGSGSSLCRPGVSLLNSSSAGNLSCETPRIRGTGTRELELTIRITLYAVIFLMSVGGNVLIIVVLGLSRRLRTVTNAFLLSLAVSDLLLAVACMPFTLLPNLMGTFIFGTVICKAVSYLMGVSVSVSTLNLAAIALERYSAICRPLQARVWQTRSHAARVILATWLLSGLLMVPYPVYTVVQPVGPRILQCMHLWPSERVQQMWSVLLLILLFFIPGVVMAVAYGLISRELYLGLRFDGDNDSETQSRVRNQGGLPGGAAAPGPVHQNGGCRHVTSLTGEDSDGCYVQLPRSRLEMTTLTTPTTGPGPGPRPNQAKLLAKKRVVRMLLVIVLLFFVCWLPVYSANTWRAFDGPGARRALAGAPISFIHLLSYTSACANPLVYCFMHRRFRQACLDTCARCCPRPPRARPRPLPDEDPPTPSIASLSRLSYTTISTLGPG
In words: Inhibition of the binding of pentagastrin to mouse cortical membranes. The text has this:
Tests on binding to cerebral cortex membranes of mice
The capacities of some of the compounds of the invention to inhibit the binding of pentagastrin to the gastrin receptor sites on the cerebral cortex membranes of mice was to be evaluated. Pentagastrin tritiate[beta-alanyl-3-3H(N)] was used as the ligand.
Mouse cortical tissue Was homogenised cold in 20 volumes of tris buffer (pH 7.7). After washing and centrifuging, the final pellet was resuspended in 20 volumes of binding buffer containing, inter alia, TRIS, BSA and Bacitracin. 0.4 ml of the membrane thus obtained were then incubated with a radioactive tracer and the compounds under test for 40 minutes at 37° C.
After the supernatant liquid had been removed by centrifuging, the radioactivity associated with the pellet was determined with a liquid scintillator (a beta-counter). The specific binding was the difference between the binding in the absence and in the presence of 10^-5M pentagastrin.

`O=C(O)CC[C@@H](NC(=O)c1cc(Cl)cc(Cl)c1)C(=O)N1CCC2(CCCC2)CC1` [Compound C5]: under “pentagastrin tritiate ligand, 40 minutes at 37° C., read-out: IC50, inhibition of the binding of pentagastrin”, the IC50 was 110 nM. Moreover, the “Activity on the central receptor relative to C-30” value (vs C-30) was “three times less active”.
